Legend:
[1] = tested on: DSS induced colitis; test: dextran sodium sulfate (DSS) induced colitis, 2% DSS days 1-7, SW033291 versus vehicle; type: in vivo, FVB male mice
Procedure: In the study, 8-12 week old FVB male mice were fed with 2% DSS in drinking water for days 1-7, and then switched to normal drinking water beginning on day 8, and continued through day 22. […] Clinical scoring (body weight, rectal bleeding, stool consistency) was recorded daily, endoscopic scoring (ulcer number, mucosal thickening, and vascular pattern) was assessed on days 8, 11, 15. Mice were sacrificed on days 1, 8, 15 and 22 for assessment of colon length, colon weight, ulcer number, ulcer area, and crypt damage.
The Disease Activity Index is calculated as an equally weighted average of the change from baseline weight, the consistency of stool, and the presence of rectal bleeding, with each component normalized to span an identical numerical range.
In addition to the gross visual inspection and scoring of colitis activity by the MEICS index, full length colons of mice were formalin fixed and paraffin embedded, and microscopic scoring of crypt damage was performed using the 0-4 severity scale of Cooper H S. Et al., Lab Invest. 1993; 69:238-249. For this analysis, the colons were divided into 3 segments of proximal, middle, and distal colon, each approximately 1.6 cm in length, with each segment was further subdivided into 4 sections each approximately 4 mm in length. For each section the crypt damage severity score was multiplied by the length in mm of the damaged area, creating a 0-16 cryptitis severity index. An average cryptitis severity index was calculated for each segment (proximal, middle, and distal colon), and the summed whole colon cryptitis severity index was determined on a scale of 0-48 for each mouse colon.
Mice were injected with BrdU at 100 mg/kg IP 3 hours before sacrifice and then full length colons were formalin fixed and embedded in paraffin. S-phase cells, that have incorporated BrdU into DNA, were visualized by immuno-fluorescent staining of 5 μm thick sections with an antibody that detects the BrdU. Colonic crypts were visualized by immuno-fluorescent staining with an antibody to the epithelial marker E-Cadherin. […] Red immune-fluorescence identifies BrdU positive nuclei, and green immune-fluorescence identifies E-Cadherin positive colonocytes. The number of BrdU positive cell per crypt is determined by counting the number of dual labeled red and green cells per average crypt. Green only cells that are not in S-phase are not counted, and red only cells, that are likely stromal cells outside of crypts, are also not counted. […] The graph depicts the sum of the average number of BrdU positive cells per crypt in the distal colon plus the average number of BrdU positive cells per crypt middle colons of control (Cn), […] treated (Tx), and 15-PGDH knockout mice (KO) on day 1, day 8, and day 15 of the DSS treatment protocol.

[2] = stability on incubation with hepatocyte extracts; type: in vitro ADME
[3] = stability on incubation with hepatocyte cell lines; type: in vitro ADME
[4] = tested on: DSS induced colitis; test: DSS colitis treatment study: (+) SW033291, dexamethasone or combination from day 8; type: in vivo, mice; settings: (+) SW033291 5 mpk IP twice daily, dexamethasone 0.06 mpk IP daily
[5] = stability on incubation with mouse liver extracts; type: in vitro ADME
[6] = stability on incubation with rat liver extracts; type: in vitro ADME
[7] = stability on incubation with human liver extracts; type: in vitro ADME

In the case of `CCCC[S+]([O-])c1sc2nc(-c3cccs3)cc(-c3ccccc3)c2c1N` (centres unmarked) [SW033291], the “average change from baseline weight versus control” value ([1]; 5 mg/kg IP twice daily, 22 days, FIG. 1) is reported as “greater weight at all time points”, the “weight gain after washout of DSS versus control” value ([1]; 5 mg/kg IP twice daily, P=0.001, FIG. 1) is reported as “faster weight gain” and the “Wt @sacrifice” value ([1]; Baseline) is reported as 25.9 ± 0.7 gm. For the same compound, the “Wt @sacrifice” value ([1]; Day 8) was 26.4 ± 0.5 gm, the “Wt @sacrifice” value ([1]; Day 15) was 25.2 ± 0.9 gm and the “Wt @sacrifice” value ([1]; Day 22) was 28.2 ± 0.5 gm. For the same compound, the “body weight versus vehicle control (in words)” value ([1]; day 22) was “greater body weight”, the “colon length versus vehicle control (in words)” value ([1]; day 22) was “greater colon lengths” and the “ulcer formation prevented (colonoscopy)” value ([1]; days 8, 11, 15, versus control, FIG. 4A) was “two-thirds”. For the same compound, the “MEICS score versus vehicle” value ([1]; days 8, 11 and 15, FIG. 7) was “significantly less colitis activity”.

In the case of `CCCC[S+]([O-])c1sc2nc(-c3cccs3)cc(-c3ccccc3)c2c1N` (centres unmarked) [formula (IX)], the “chemical stability when incubated with hepatocyte extracts” value [2] is reported as “chemically stable” and the “chemical stability when incubated with hepatocyte cell lines” value [3] is reported as “chemically stable”.

With `C[C@@H]1C[C@H]2[C@@H]3CCC4=CC(=O)C=C[C@]4(C)[C@@]3(F)[C@@H](O)C[C@]2(C)[C@@]1(O)C(=O)CO` [dexamethasone, reference compound] the “percent decrease in total DAI (relative disease reduction)” value ([4]; area under the DAI curve, FIG. 17B) was 15%.

For `CCCC[S+]([O-])c1sc2nc(-c3cccs3)cc(-c3ccccc3)c2c1N` (single isomer, unassigned; (+)) [(+) SW033291], the “daily weights (weight loss)” value ([4]; days 1-17, from day 8, FIG. 15) was “some amelioration of weight loss”.

In the case of `CCCC[S+]([O-])c1sc2nc(-c3nccs3)cc(-c3cnc(C)n3C)c2c1N` (centres unmarked) [formula (X)], the “chemical stability when incubated with liver extracts” value [5] is reported as “chemically stable”, the “chemical stability when incubated with liver extracts” value [6] is reported as “chemically stable” and the “chemical stability when incubated with liver extracts” value [7] is reported as “chemically stable”.
